Where “and” joins values, the source holds several entries; their conditions need not be identical. Identical values can stand only once.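 96-well plates; 48 h exposure; 5 concentrations. Endpoints by linear interpolation between flanking doses. Not reached: highest tested concentration assigned. At the GI50, growth is halved.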 Calls of active or inactive are those of the source. Cut-off read from the data, not from the text of the source: active = GI50 up to about 1.1 µM and inactive = higher.
Tests used:
Assay in all cases: NCI tumour cell line growth inhibition, 48 h
T47D = system: T47D
SK-MEL-5 = system: SK-MEL-5
SW-620 = system: SW-620
SNB-75 = system: SNB-75
TK-10 = system: TK-10
LOX IMVI = system: LOX IMVI
MCF7 = system: MCF7
Hs-578T = system: Hs-578T
SK-MEL-2 = system: SK-MEL-2
HCC 2998 = system: HCC 2998
SN12C = system: SN12C
SF-268 = system: SF-268
NCI-H226 = system: NCI-H226
HT-29 = system: HT-29
OVCAR-5 = system: OVCAR-5
CAKI-1 = system: CAKI-1
MDA-N = system: MDA-N
SF-539 = system: SF-539
K562 = system: K562
PC-3 = system: PC-3

Measured: GI50

Cc1cc(-c2cc(C)c(O)c(C(C)(C)C)c2)cc(C(C)(C)C)c1O
inactive: T47D 4.53 µM and 7 µM | SK-MEL-5 10.6 µM and 14.7 µM | SW-620 16.4 µM and 11 µM | SNB-75 14 µM and 12.6 µM | TK-10 11.2 µM and 12.1 µM | LOX IMVI 10.1 µM and 11.5 µM | MCF7 5.02 µM and 6.62 µM | Hs-578T 12.8 µM and 15.3 µM | SK-MEL-2 6.31 µM and 12.2 µM | HCC 2998 4.54 µM and 4.59 µM | SN12C 13.4 µM and 12.3 µM | SF-268 13.9 µM and 11.7 µM | NCI-H226 10.7 µM and 19.8 µM | HT-29 3.24 µM and 3.82 µM | OVCAR-5 14.5 µM and 11.9 µM | CAKI-1 14.6 µM and 9.66 µM | MDA-N 14.7 µM and 8.65 µM | SF-539 15 µM and 18.5 µM | K562 9.25 µM and 7.69 µM

Oc1nc2ccccc2c(O)c1Cc1ccccc1
inactive: SK-MEL-5 > 100 µM | SW-620 > 100 µM | SNB-75 > 100 µM | TK-10 > 100 µM | LOX IMVI > 100 µM | MCF7 > 100 µM | PC-3 > 100 µM | Hs-578T > 100 µM | HCC 2998 > 100 µM | SN12C > 100 µM | SF-268 > 100 µM | NCI-H226 > 100 µM | HT-29 > 100 µM | OVCAR-5 > 100 µM | CAKI-1 > 100 µM | MDA-N > 100 µM | SF-539 > 100 µM | K562 > 100 µM

C=C(C)CNCCN
inactive: T47D > 100 µM | SK-MEL-5 > 100 µM | SW-620 > 100 µM | TK-10 > 100 µM | LOX IMVI > 100 µM | PC-3 > 100 µM | Hs-578T > 100 µM | SK-MEL-2 > 100 µM | SN12C > 100 µM | SF-268 > 100 µM | NCI-H226 > 100 µM | HT-29 > 100 µM | OVCAR-5 > 100 µM | CAKI-1 > 100 µM | MDA-N > 100 µM | K562 > 100 µM

Oc1ccc(C[C@@H]2CN[C@H](Cc3ccc(O)c(Br)c3)CN2)cc1
inactive: T47D > 100 µM | SW-620 > 100 µM | SNB-75 > 100 µM | TK-10 > 100 µM | MCF7 > 100 µM | PC-3 > 100 µM | Hs-578T > 100 µM | SK-MEL-2 > 100 µM | HCC 2998 > 100 µM | SN12C > 100 µM | SF-268 > 100 µM | NCI-H226 > 100 µM | HT-29 > 100 µM | OVCAR-5 > 100 µM | CAKI-1 > 100 µM | SF-539 > 100 µM

Cc1ccc(S(=O)(=O)NC(=O)NC(CCCCN)C(=O)O)cc1 (configuration not stated)
inactive: T47D > 100 µM | SK-MEL-5 > 100 µM | SW-620 > 100 µM | SNB-75 > 100 µM | TK-10 > 100 µM | LOX IMVI > 100 µM | MCF7 > 100 µM | PC-3 > 100 µM | Hs-578T > 100 µM | SK-MEL-2 > 100 µM | SN12C > 100 µM | SF-268 > 100 µM | MDA-N > 100 µM | SF-539 > 100 µM | K562 > 100 µM

CC(C)(C)/C(O)=C\c1nc2cc(C(F)(F)F)ccc2[nH]c1=O
inactive: T47D > 100 µM | SK-MEL-5 > 100 µM | SW-620 > 100 µM | SNB-75 > 100 µM | TK-10 > 100 µM | LOX IMVI > 100 µM | PC-3 > 100 µM | Hs-578T > 100 µM | SK-MEL-2 > 100 µM | SN12C > 100 µM | SF-268 > 100 µM | NCI-H226 > 100 µM | HT-29 47.5 µM | OVCAR-5 > 100 µM | CAKI-1 > 100 µM | MDA-N > 100 µM | K562 27.9 µM

CN1C(=O)C(C(N)=O)C2CC1(C)Oc1ccccc12 (configuration not stated)
inactive: T47D > 100 µM | SK-MEL-5 > 100 µM | SW-620 > 100 µM | SNB-75 > 100 µM | LOX IMVI > 100 µM | MCF7 > 100 µM | PC-3 > 100 µM | Hs-578T > 100 µM | SK-MEL-2 > 100 µM | HCC 2998 > 100 µM | SN12C > 100 µM | SF-268 > 100 µM | NCI-H226 > 100 µM | HT-29 > 100 µM | OVCAR-5 > 100 µM | CAKI-1 > 100 µM | K562 > 100 µM

CCc1nn(S(=O)(=O)c2ccc(C)cc2)c2c1CS(=O)(=O)CC2
inactive: T47D > 100 µM | SK-MEL-5 > 100 µM | SW-620 > 100 µM | SNB-75 > 100 µM | TK-10 > 100 µM | MCF7 > 100 µM | PC-3 > 100 µM | Hs-578T 28 µM | SK-MEL-2 > 100 µM | SN12C > 100 µM | SF-268 37.1 µM | HT-29 > 100 µM | OVCAR-5 > 100 µM | CAKI-1 > 100 µM | MDA-N > 100 µM | SF-539 91.4 µM | K562 > 100 µM

COc1ccc(/C=C2\CCC(CN(C)C)C2=O)cc1 (configuration not stated)
inactive: SK-MEL-5 8.69 µM | SW-620 1.96 µM | SNB-75 12.4 µM | TK-10 5.98 µM | LOX IMVI 1.93 µM | MCF7 1.95 µM | PC-3 5.12 µM | Hs-578T 3.82 µM | SK-MEL-2 7.87 µM | HCC 2998 8.13 µM | SN12C 5.83 µM | SF-268 9.71 µM | NCI-H226 16.3 µM | HT-29 3.5 µM | OVCAR-5 13.6 µM | CAKI-1 2.4 µM | MDA-N 3.44 µM | SF-539 7.83 µM | K562 1.6 µM

COC(=O)C1=C(O)C(C(=O)OC)[C@]2(O)[C@H](C(=O)OC)[C@H]1C[C@@H](c1ccccc1OC)[C@H]2C(=O)OC (some centres not stated)
inactive: T47D 10.4 µM | SK-MEL-5 3.64 µM | SW-620 4.25 µM | SNB-75 10.7 µM | TK-10 14.1 µM | LOX IMVI 2.79 µM | PC-3 6.03 µM | Hs-578T 2.49 µM | SK-MEL-2 6.03 µM | HCC 2998 10.5 µM | SN12C 4.68 µM | SF-268 4.53 µM | NCI-H226 5.4 µM | HT-29 4.82 µM | OVCAR-5 6.08 µM | CAKI-1 3.99 µM | MDA-N 1.98 µM | SF-539 2.71 µM | K562 4.38 µM

CC(C)Oc1ccc(CNC2=NCCO2)c2ccccc12
inactive: T47D 11.9 µM | SK-MEL-5 12.9 µM | SW-620 15.3 µM | SNB-75 18.2 µM | TK-10 16.3 µM | MCF7 14.1 µM | Hs-578T 10.3 µM | HCC 2998 10.9 µM | SN12C 17.3 µM | SF-268 22.3 µM | NCI-H226 15.7 µM | HT-29 4.01 µM | OVCAR-5 11.6 µM | SF-539 9.66 µM | K562 4.57 µM

CCOC(=O)C1=C(C)N(c2ccc(Cl)cc2)C2(O)C=CC(O)=C3C(=O)c4ccccc4C(=O)C312 (configuration not stated)
inactive: T47D 3.45 µM | SK-MEL-5 7.96 µM | SW-620 4.08 µM | TK-10 1.71 µM | LOX IMVI 3.72 µM | MCF7 2.72 µM | PC-3 3.34 µM | Hs-578T 4.26 µM | SK-MEL-2 4.32 µM | SN12C 4.16 µM | SF-268 1.67 µM | OVCAR-5 12.9 µM | CAKI-1 1.96 µM | MDA-N 4.7 µM | SF-539 4.16 µM | K562 4.23 µM

O1C2C1C1OC1C1OC1C1OC21 (configuration not stated)
inactive: T47D > 100 µM | SK-MEL-5 > 100 µM | SNB-75 46.6 µM | TK-10 > 100 µM | LOX IMVI > 100 µM | MCF7 > 100 µM | PC-3 > 100 µM | Hs-578T > 100 µM | SK-MEL-2 > 100 µM | SN12C > 100 µM | SF-268 > 100 µM | NCI-H226 > 100 µM | HT-29 > 100 µM | OVCAR-5 > 100 µM | CAKI-1 > 100 µM | MDA-N > 100 µM | K562 > 100 µM

Nc1cccc(CCN2CCN(CCCc3ccccc3)CC2)c1
inactive: T47D 20.3 µM | SK-MEL-5 20.1 µM | SW-620 30.5 µM | SNB-75 > 100 µM | TK-10 74.1 µM | LOX IMVI 18.1 µM | MCF7 19.2 µM | PC-3 70.1 µM | Hs-578T 25.1 µM | SK-MEL-2 > 100 µM | HCC 2998 15 µM | SN12C 95.3 µM | SF-268 58.2 µM | NCI-H226 70 µM | HT-29 13.7 µM | OVCAR-5 > 100 µM | CAKI-1 53.3 µM | SF-539 22.2 µM | K562 12.9 µM

O=C(NCCCCNCCCNC(=O)OCc1ccccc1)OCc1ccccc1
inactive: T47D 18.9 µM | SK-MEL-5 16.9 µM | SW-620 61.7 µM | SNB-75 25.5 µM | TK-10 43.7 µM | MCF7 24.5 µM | PC-3 27.2 µM | Hs-578T 31.8 µM | SK-MEL-2 21 µM | HCC 2998 19.5 µM | SN12C 85.3 µM | SF-268 69.5 µM | NCI-H226 32 µM | HT-29 18 µM | OVCAR-5 85.1 µM | SF-539 21.3 µM | K562 30.8 µM

— ChEMBL document CHEMBL1201862, “PubChem BioAssay data set” (2004)
